Assay results as given in paper PMC6048161, “Inward-facing conformation of L-ascorbate transporter suggests an elevator mechanism” (Cell Discovery, 2018).

How the values were obtained:
ecUlaA [1] = target: T1, ecUlaA (Escherichia coli, UniProt P39301, T86P); experiment: isothermal titration calorimetry; format: binding
T1 construct: gene ulaA; homologue genes cloned in pET21b with C-terminal His8, E. coli C43(DE3)

ecUlaA [2] = target: T2, ecUlaA (Escherichia coli, UniProt P39301); experiment: isothermal titration calorimetry; conditions: ITC performed as in ref. 11; detergent-purified protein; read-out: binding affinity; cited from earlier work
T2 construct: gene ulaA; homologue genes cloned in pET21b with C-terminal His8, E. coli C43(DE3)

O=C1O[C@H]([C@@H](O)CO)C(O)=C1O [vitamin C]
Kd (ecUlaA [1]): ~26.5 µM | Kd (ecUlaA [2]): 6.1 ± 0.9 µM
